Assay results taken from ChEMBL document CHEMBL3885881, “DrugMatrix”.

Species on record: Rattus norvegicus
Assay: DrugMatrix - Regimen: Daily Repeat
Type: toxicity, organism-based, Sprague-Dawley
Parameters: regimen Daily Repeat, gender Male, age 6-8 weeks
Conditions: in vivo, po, route oral GAVAGE; for POTASSIUM / SODIUM / TOTAL BILIRUBIN / TOTAL PROTEIN / URIC ACID / ALANINE AMINOTRANSFERASE / ALBUMIN / ALKALINE PHOSPHATASE / ASPARTATE AMINOTRANSFERASE / BLOOD UREA NITROGEN / CARBON DIOXIDE / CHLORIDE / CHOLESTEROL / CREATINE PHOSPHOKINASE / CREATININE / GLUCOSE / LACTATE DEHYDROGENASE / LIPASE / PHOSPHORUS: tissue Plasma; for ABSOLUTE EOSINOPHIL / ABSOLUTE LYMPHOCYTE / ABSOLUTE MONOCYTE / ABSOLUTE SEGMENTED NEUTROPHIL / EOSINOPHIL / ERYTHROCYTE COUNT / HEMATOCRIT / HEMOGLOBIN / LEUKOCYTE COUNT / LYMPHOCYTE / MEAN CORPUSCULAR HEMOGLOBIN / MEAN CORPUSCULAR HEMOGLOBIN CONCENTRATION / MEAN CORPUSCULAR VOLUME / MONOCYTE / NEUTROPHIL / PLATELET COUNT / ABSOLUTE BASOPHIL / BASOPHIL / NUCLEATED RED BLOOD CELLS: tissue Blood
[1] = 60 mg/kg, 120 h, dose level Low, time 5 day, vehicle 100 % WATER
[2] = 600 mg/kg, 72 h, dose level High, time 3 day, […]
[3] = 600 mg/kg, 72 h, dose level High, time 3 day, vehicle 100 % WATER
[4] = 600 mg/kg, 120 h, dose level High, time 5 day, […]
[5] = 600 mg/kg, 120 h, dose level High, time 5 day, vehicle 100 % WATER

ClC(Cl)Cl [CHLOROFORM]
POTASSIUM [1]: 6.14 MEQ/L
SODIUM [1]: 145.6 MEQ/L
TOTAL BILIRUBIN [1]: 0.1 mg/dL
TOTAL PROTEIN [1]: 6.3 G/DL
URIC ACID [1]: 1.5 mg/dL
ABSOLUTE EOSINOPHIL [2]: 29.6 CELLS/uL
ABSOLUTE LYMPHOCYTE [2]: 12329.2 CELLS/uL
ABSOLUTE MONOCYTE [2]: 476.6 CELLS/uL
ABSOLUTE SEGMENTED NEUTROPHIL [2]: 1764.6 CELLS/uL
EOSINOPHIL [2]: 0.2%
ERYTHROCYTE COUNT [2]: 7.17 x10E6/uL
HEMATOCRIT [2]: 43%
HEMOGLOBIN [2]: 15.88 G/DL
LEUKOCYTE COUNT [2]: 14.6 x10E3/uL
LYMPHOCYTE [2]: 84.4%
MEAN CORPUSCULAR HEMOGLOBIN [2]: 22.2 pg
MEAN CORPUSCULAR HEMOGLOBIN CONCENTRATION [2]: 37 G/DL
MEAN CORPUSCULAR VOLUME [2]: 60.02 fL
MONOCYTE [2]: 3.2%
NEUTROPHIL [2]: 12.2%
PLATELET COUNT [2]: 1301.6 x10E3/uL
ABSOLUTE BASOPHIL [3]: 0 CELLS/uL
ABSOLUTE EOSINOPHIL [3]: 0 CELLS/uL
ABSOLUTE LYMPHOCYTE [3]: 7700 CELLS/uL
ABSOLUTE MONOCYTE [3]: 77.67 CELLS/uL
ABSOLUTE SEGMENTED NEUTROPHIL [3]: 589 CELLS/uL
BASOPHIL [3]: 0%
EOSINOPHIL [3]: 0%
ERYTHROCYTE COUNT [3]: 6.05 x10E6/uL
HEMATOCRIT [3]: 38.4%
HEMOGLOBIN [3]: 14.97 G/DL
LEUKOCYTE COUNT [3]: 8.37 x10E3/uL
LYMPHOCYTE [3]: 88%
MEAN CORPUSCULAR HEMOGLOBIN [3]: 24.73 pg
MEAN CORPUSCULAR HEMOGLOBIN CONCENTRATION [3]: 38.97 G/DL
MEAN CORPUSCULAR VOLUME [3]: 63.43 fL
MONOCYTE [3]: 1.33%
NEUTROPHIL [3]: 10.67%
NUCLEATED RED BLOOD CELLS [3]: 0 /100WBC
PLATELET COUNT [3]: 1080.33 x10E3/uL
ALANINE AMINOTRANSFERASE [2]: 196 u/L
ALBUMIN [2]: 4.36 G/DL
ALKALINE PHOSPHATASE [2]: 902 u/L
ASPARTATE AMINOTRANSFERASE [2]: 462.4 u/L
BLOOD UREA NITROGEN [2]: 20.8 mg/dL
CARBON DIOXIDE [2]: 16.6 mmol/L
CHLORIDE [2]: 107.4 MEQ/L
CHOLESTEROL [2]: 77.6 mg/dL
CREATINE PHOSPHOKINASE [2]: 516 u/L
CREATININE [2]: 0.44 mg/dL
GLUCOSE [2]: 134.8 mg/dL
LACTATE DEHYDROGENASE [2]: 597.4 u/L
LIPASE [2]: 10.6 u/L
PHOSPHORUS [2]: 13.48 mg/dL
POTASSIUM [2]: 5.66 MEQ/L
SODIUM [2]: 144.48 MEQ/L
TOTAL BILIRUBIN [2]: 0.72 mg/dL
TOTAL PROTEIN [2]: 6.04 G/DL
URIC ACID [2]: 2.72 mg/dL
ALANINE AMINOTRANSFERASE [3]: 73.33 u/L
ALBUMIN [3]: 4.4 G/DL
ALKALINE PHOSPHATASE [3]: 416 u/L
ASPARTATE AMINOTRANSFERASE [3]: 103.67 u/L
BLOOD UREA NITROGEN [3]: 14.67 mg/dL
CARBON DIOXIDE [3]: 34.33 mmol/L
CHLORIDE [3]: 98.67 MEQ/L
CHOLESTEROL [3]: 81.67 mg/dL
CREATINE PHOSPHOKINASE [3]: 203.67 u/L
CREATININE [3]: 0.22 mg/dL
GLUCOSE [3]: 153.67 mg/dL
LACTATE DEHYDROGENASE [3]: 179 u/L
LIPASE [3]: 10.67 u/L
PHOSPHORUS [3]: 10 mg/dL
POTASSIUM [3]: 5.43 MEQ/L
SODIUM [3]: 144.7 MEQ/L
TOTAL BILIRUBIN [3]: 0.13 mg/dL
TOTAL PROTEIN [3]: 6.6 G/DL
URIC ACID [3]: 0.7 mg/dL
ABSOLUTE LYMPHOCYTE [4]: 11359.33 CELLS/uL
ABSOLUTE MONOCYTE [4]: 227.33 CELLS/uL
ABSOLUTE SEGMENTED NEUTROPHIL [4]: 6880 CELLS/uL
ERYTHROCYTE COUNT [4]: 7.17 x10E6/uL
HEMATOCRIT [4]: 42.1%
HEMOGLOBIN [4]: 15.6 G/DL
LEUKOCYTE COUNT [4]: 18.47 x10E3/uL
LYMPHOCYTE [4]: 73%
MEAN CORPUSCULAR HEMOGLOBIN [4]: 21.73 pg
MEAN CORPUSCULAR HEMOGLOBIN CONCENTRATION [4]: 37.07 G/DL
MEAN CORPUSCULAR VOLUME [4]: 58.7 fL
MONOCYTE [4]: 2%
NEUTROPHIL [4]: 25%
PLATELET COUNT [4]: 1040.67 x10E3/uL
ABSOLUTE BASOPHIL [5]: 0 CELLS/uL
ABSOLUTE EOSINOPHIL [5]: 0 CELLS/uL
ABSOLUTE LYMPHOCYTE [5]: 9175.5 CELLS/uL
ABSOLUTE MONOCYTE [5]: 105.5 CELLS/uL
ABSOLUTE SEGMENTED NEUTROPHIL [5]: 1269 CELLS/uL
BASOPHIL [5]: 0%
EOSINOPHIL [5]: 0%
ERYTHROCYTE COUNT [5]: 6.48 x10E6/uL
HEMATOCRIT [5]: 39.2%
HEMOGLOBIN [5]: 15.15 G/DL
LEUKOCYTE COUNT [5]: 10.55 x10E3/uL
LYMPHOCYTE [5]: 88%
MEAN CORPUSCULAR HEMOGLOBIN [5]: 23.4 pg
MEAN CORPUSCULAR HEMOGLOBIN CONCENTRATION [5]: 38.7 G/DL
MEAN CORPUSCULAR VOLUME [5]: 60.5 fL
MONOCYTE [5]: 1%
NEUTROPHIL [5]: 11%
NUCLEATED RED BLOOD CELLS [5]: 0 /100WBC
PLATELET COUNT [5]: 959 x10E3/uL
ALANINE AMINOTRANSFERASE [4]: 212 u/L
ALBUMIN [4]: 4.1 G/DL
ALKALINE PHOSPHATASE [4]: 626 u/L
ASPARTATE AMINOTRANSFERASE [4]: 299.67 u/L
BLOOD UREA NITROGEN [4]: 49.67 mg/dL
CARBON DIOXIDE [4]: 19.67 mmol/L
CHLORIDE [4]: 110.67 MEQ/L
CHOLESTEROL [4]: 110.33 mg/dL
CREATINE PHOSPHOKINASE [4]: 744 u/L
CREATININE [4]: 0.83 mg/dL
GLUCOSE [4]: 119.33 mg/dL
LACTATE DEHYDROGENASE [4]: 376 u/L
PHOSPHORUS [4]: 13.27 mg/dL
POTASSIUM [4]: 9.12 MEQ/L
SODIUM [4]: 144.83 MEQ/L
TOTAL BILIRUBIN [4]: 0.63 mg/dL
TOTAL PROTEIN [4]: 5.77 G/DL
URIC ACID [4]: 1.3 mg/dL
ALANINE AMINOTRANSFERASE [5]: 46.5 u/L
ALBUMIN [5]: 4.05 G/DL
ALKALINE PHOSPHATASE [5]: 305.5 u/L
ASPARTATE AMINOTRANSFERASE [5]: 71 u/L
BLOOD UREA NITROGEN [5]: 15 mg/dL
CARBON DIOXIDE [5]: 29 mmol/L
CHLORIDE [5]: 102.5 MEQ/L
CHOLESTEROL [5]: 69 mg/dL
CREATINE PHOSPHOKINASE [5]: 475.5 u/L
CREATININE [5]: 0.21 mg/dL
GLUCOSE [5]: 150.5 mg/dL
LACTATE DEHYDROGENASE [5]: 93 u/L
LIPASE [5]: 11 u/L
PHOSPHORUS [5]: 11.45 mg/dL
POTASSIUM [5]: 5.24 MEQ/L
SODIUM [5]: 146.9 MEQ/L
TOTAL BILIRUBIN [5]: 0.1 mg/dL
TOTAL PROTEIN [5]: 6.05 G/DL
URIC ACID [5]: 0.95 mg/dL
